The record followed here is US20240294550A1, “8-OXA-3-AZABICYCLO[3.2.1]OCTANE COMPOUNDS OR SALT THEREOF, AND PREPARATION METHOD AND USE THEREOF” (LITTDD MEDICINES LTD, priority 2021, published 2024).

Data set [1] in a line: Metabolic stability in mouse liver microsomes. The data set is classed as in vitro ADME, CD-1 mice. On the procedure: Drug-like Properties: Concepts, Structure Design and Methods: from ADME to Toxicity Optimization. […] Screen. […] After incubation for appropriate time (such as 5, 10, 20, 30 and 60 minutes), samples were collected, and an appropriate termination solution (glacial acetonitrile containing 200 ng/mL tolbutamide and 200 ng/mL labetalol (i.e. acetonitrile at 4° C.)) was added to stop the reaction. Sample treatment (n=1): each appropriate sample was added, vortexed and centrifuged at high speed. The supernatants were collected, and detected the substrate by HPLC-MS/MS. The peak area at the 0 min was set as 100%. The peak areas at other time points were converted to percentages of the remaining amount. The natural logarithms of the percentage of remaining amount at each time point was plotted against the incubation time, and the slope (−k) was calculated. Then, Clint (μL/min/mg) and half-life (T½, min) of the compounds were calculated following the equation: Inherent clearance rate (Clint)=(k*Volume of incubation solution)/Mass of liver microsomes.

Data set [2] can be described thus: Pharmacokinetic (PK) assay in mice. The data set is classed as in vivo. Conditions: CD-1 mice; for AUC(0-t): read-out: AUC0-24 h. On the procedure:
The PK of each compound was determined as follows: 6 CD-1 mice (obtained from Shanghai Lingchang Biotechnology Co., Ltd.) were divided into two groups, 3 mice in each group. […] Blood samples were collected from saphenous vein of lower leg in each group at 0, 0.083, 0.25, 0.5, 1, 2, 4, 6, 8 and 24 h after administration. Approximately 40 μL of the blood samples were collected in anticoagulant tubes containing EDTA-K2. Immediately after collection, the tubes were inverted at least 5 times to ensure adequate mixing, and then placed on ice. The blood samples collected at each time point were centrifuged at 4° C., 8000 rpm for 5 minutes to obtain plasma. Another 1.5 mL centrifuge tube was marked with the compound name, animal number, and time point, and the plasma was transferred to this tube. The plasma was stored at −80° C. until analysis.
Compound concentrations in plasma were determined by UPLC-MS/MS method, and the pharmacokinetic parameters were calculated by Phoenix WinNolin 6.4 pharmacokinetic software on the obtained data.

Molecules are shown by their SMILES. Where two headings read alike, the source gives them in different places.

Broadly, the half-life is the time needed for the level to fall by half in the phase considered. A high value points to slow decline. By bioavailability is commonly meant the share of a dose that reaches the circulation, judged against a reference dose that is usually intravenous. For orientation: Cmax means the peak of the concentration-time curve. In turn, `C[C@@H]1COCCN1c1cc(N2CC3CCC(C2)O3)nc2c(-c3cc[nH]n3)cnn12` [Example 1, 3-(7-((R)-3-methylmorpholino)-3-(1H-pyrazol-3-yl)pyrazolo[1,5-a]pyrimidin-5-yl)-8-oxa-3-azabicyclo[3.2.1]octane] registered a half-life at 1 μM in data set [1] (CD-1, 1 μM compound) of 0.972 h. Besides, in data set [1] (CD-1, read-out: CLint(mic)), the microsomal CLint at 1 μM was 23.8 µL/min/mg. Further, the “Remain % (T = 60 min)” value in data set [1] (T = 60 min) is listed as 44.4%. This compound gave a CL_obs in data set [2] (IV dose 1 mg/kg) of 18.3 mL/min/kg. Besides, the half-life was 1.51 h in data set [2] (mouse, plasma, IV dose 1 mg/kg) and 2.57 h in data set [2] (mouse, plasma, Po dose 5 mg/kg). Further, the Vd in data set [2] (mouse, plasma, IV dose 1 mg/kg, read-out: Vss) stood at 1.68 L/kg. The compound also showed a bioavailability in data set [2] (mouse, plasma, Po dose 5 mg/kg vs IV dose 1 mg/kg) of 75.6%. This compound also had a C0 in data set [2] (mouse, IV dose 1 mg/kg, plasma) of 823 ng/mL. Besides, the AUC(0-t) in data set [2] (mouse, IV dose 1 mg/kg, plasma) came to 925 ng·h/mL; in data set [2] (mouse, Po dose 5 mg/kg, plasma), 3440 ng·h/mL. In data set [2] (mouse, Po dose 5 mg/kg, plasma), the Cmax is 1080 ng/mL.
